Assay results from US10059713B2 (Takeda Pharmaceutical Company Limited, priority 2014, dated 2018).

Biological target: human GPR43 (Homo sapiens (Human), UniProt O15552)
Assay: Ca-Flux functional assay: determination of agonist/positive allosteric modulator (PAM) activity
Format: cell-based
Settings: CHO-K1 Gα16 cells stably expressing human GPR43; compound added with EC20 sodium acetate; intracellular Ca2+ by FLIPR; does not distinguish agonist from PAM
Method: Ca-Flux Functional Assay: Determination of Agonist/Positive Allosteric Modulator (PAM) Activity
GPR43 agonist/PAM activity was determined by measuring changes in intracellular calcium levels using a Ca^2+ sensitive fluorescent dye. The changes in fluorescent signal were monitored by FLIPR (manufactured by Molecular Devices). GPR43 mediated increases in intracellular Ca^2+ concentration were readily detected upon activation with sodium acetate. Prior to the assay (24 hours), CHO-K1 Gα16 cells stably expressing human GPR43 were-seeded in cell culture medium in black, clear-bottom 384-well plates (Corning Inc) and grown overnight at 37° C., 5% CO2. On the day of the assay, cell culture media was removed and cells were loaded with Calcium 5 Dye (Molecular Devices) diluted in HBSS containing 25 mM HEPES, 2.5 mM Probenecid, 0.1% BSA for 1 hour at 37° C., 5% CO2. 10 point half log concentration response curves of sodium acetate from 10 mM were conducted prior to the testing of compounds to calculate the sodium acetate concentration that produces 20% of the maximal response (EC20). Test compounds (at 10 point half log concentration response curves from 10 μM) were added in the presence of sodium acetate to achieve a final concentration that produces approximately 20% maximal response as calculated from the previous experiment. The changes in fluorescent signal were monitored by FLIPR upon addition of the compound/EC20 sodium acetate mix. The EC50 values were determined from ten point concentration response curves. Curves were generated using the average of two wells for each data point.
The above assay detects both GPR43 receptor agonists and positive allosteric modulators of the GPR43 receptor, without distinguishing between the two. Activity in either regard is useful in the treatment of conditions associated with GPR43 receptor activity.

Sequence of human GPR43 (O15552 whole entry): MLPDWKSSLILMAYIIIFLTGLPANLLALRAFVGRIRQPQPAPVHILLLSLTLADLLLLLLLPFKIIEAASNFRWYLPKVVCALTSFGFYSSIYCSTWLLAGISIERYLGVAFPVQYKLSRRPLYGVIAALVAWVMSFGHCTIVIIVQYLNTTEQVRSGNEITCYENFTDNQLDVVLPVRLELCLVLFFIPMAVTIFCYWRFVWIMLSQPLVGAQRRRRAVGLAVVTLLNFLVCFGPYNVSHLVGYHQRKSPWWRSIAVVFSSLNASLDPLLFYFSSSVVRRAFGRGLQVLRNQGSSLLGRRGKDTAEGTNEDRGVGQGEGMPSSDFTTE

Question: How did the EC50 turn out when `CC1(COc2ncnc3c(S(=O)(=O)c4ccccc4)c(N)[nH]c23)CC1` [Example 173, 7-(benzenesulfonyl)-4-[(1-methylcyclopropyl)methoxy]-5H-pyrrolo[3,2-d]pyrimidin-6-amine] was run?
Answer: 364 nM

Question: `CC1CCCN(c2ncnc3c(S(=O)(=O)c4ccccc4)c(N)[nH]c23)C1` (stereo not shown) [Example 58, 7-(benzenesulfonyl)-4-(3-methylpiperidin-1-yl)-5H-pyrrolo[3,2-d]pyrimidin-6-amine] was tested. Which EC50 did it give?
Answer: 17 nM

Question: Which EC50 does the source give for `C[C@@H]1CN(c2ncnc3c(S(=O)(=O)c4ccccc4)c(N)[nH]c23)CCO1` [Example 137, 7-(benzenesulfonyl)-4-[(2R)-2-methylmorpholin-4-yl]-5H-pyrrolo[3,2-d]pyrimidin-6-amine] here?
Answer: 52 nM

Question: For `COc1ccc(F)c(S(=O)(=O)c2c(N)[nH]c3c(N4CCOC(C)C4)nc(C)nc23)c1` (stereo not shown) [Example 267, 7-(2-fluoro-5-methoxybenzenesulfonyl)-2-methyl-4-(2-methylmorpholin-4-yl)-5H-pyrrolo[3,2-d]pyrimidin-6-amine], which EC50 is on record?
Answer: 4 nM

Question: Which EC50 does the source give for `Cc1nc(N2CCOC(C)(C)C2)c2[nH]c(N)c(S(=O)(=O)c3ccccc3F)c2n1` [Example 185, 4-(2,2-dimethylmorpholin-4-yl)-7-(2-fluorobenzenesulfonyl)-2-methyl-5H-pyrrolo[3,2-d]pyrimidin-6-amine] here?
Answer: 6 nM

Question: For `Cc1nc(OCC(C)C)c2[nH]c(N)c(S(=O)(=O)c3ccccc3)c2n1` [Example 251, 7-(benzenesulfonyl)-2-methyl-4-(2-methylpropoxy)-5H-pyrrolo[3,2-d]pyrimidin-6-amine], which EC50 is on record?
Answer: 49 nM

Question: Which EC50 does the source give for `Nc1[nH]c2c(C3=CCCCC3)cncc2c1S(=O)(=O)c1ccccc1` [Example 16, 3-(benzenesulfonyl)-7-(cyclohex-1-en-1-yl)-1H-pyrrolo[3,2-c]pyridin-2-amine] here?
Answer: 21 nM

Question: For `CN(c1ncnc2c(S(=O)(=O)c3ccccc3)c(N)[nH]c12)C1CCOCC1` [Example 115, 7-(benzenesulfonyl)-4-N-methyl-4-N-(oxan-4-yl)-5H-pyrrolo[3,2-d]pyrimidine-4,6-diamine], which EC50 is on record?
Answer: 798 nM

Question: With `Cc1nc(OC(C)C2CCCCC2)c2[nH]c(N)c(S(=O)(=O)c3ccccc3)c2n1` (stereo not shown) [Example 255, 7-(benzenesulfonyl)-4-(1-cyclohexylethoxy)-2-methyl-5H-pyrrolo[3,2-d]pyrimidin-6-amine] as the compound, how does the EC50 read?
Answer: 65 nM

Question: Which EC50 does the source give for `Cc1nc(N2C[C@@H](C)O[C@@H](C)C2)c2[nH]c(N)c(S(=O)(=O)c3ccccc3)c2n1` [Example 138, 7-(benzenesulfonyl)-4-[(2R,6S)-2,6-dimethylmorpholin-4-yl]-2-methyl-5H-pyrrolo[3,2-d]pyrimidin-6-amine] here?
Answer: 6 nM

Question: Which EC50 does the source give for `CC1(C)CN(c2ncnc3c(S(=O)(=O)c4ccccc4)c(N)[nH]c23)CCO1` [Example 84, 7-(benzenesulfonyl)-4-(2,2-dimethylmorpholin-4-yl)-5H-pyrrolo[3,2-d]pyrimidin-6-amine] here?
Answer: 29 nM

Question: With `COc1ccc(S(=O)(=O)c2c(N)[nH]c3c(N4CCOC(C)(C)C4)ncnc23)cc1` [Example 129, 4-(2,2-dimethylmorpholin-4-yl)-7-(4-methoxybenzenesulfonyl)-5H-pyrrolo[3,2-d]pyrimidin-6-amine] as the compound, how does the EC50 read?
Answer: 33 nM

Question: For `Nc1[nH]c2c(C3=CCCCC3)ncnc2c1S(=O)(=O)c1ccc(F)c(F)c1` [Example 49, 4-(cyclohex-1-en-1-yl)-7-[(3,4-difluorobenzene)sulfonyl]-5H-pyrrolo[3,2-d]pyrimidin-6-amine], which EC50 is on record?
Answer: 113 nM

Question: For `Nc1[nH]c2c(OC3CCCCC3)ncnc2c1S(=O)(=O)c1ccccc1` [Example 160, 7-(benzenesulfonyl)-4-(cyclohexyloxy)-5H-pyrrolo[3,2-d]pyrimidin-6-amine], which EC50 is on record?
Answer: 39 nM

Question: How did the EC50 turn out when `COc1ccc(S(=O)(=O)c2c(N)[nH]c3c(N4CCO[C@@H](C(F)(F)F)C4)nc(C)nc23)c(F)c1` [Example 293, 7-(2-fluoro-4-methoxybenzenesulfonyl)-2-methyl-4-[(2R)-2-(trifluoromethyl)morpholin-4-yl]-5H-pyrrolo[3,2-d]pyrimidin-6-amine] was run?
Answer: 2 nM

Question: For `Cc1ccc(S(=O)(=O)c2c(N)[nH]c3c(C4CCCCC4)ncnc23)cc1` [Example 45, 4-cyclohexyl-7-[(4-methylbenzene)sulfonyl]-5H-pyrrolo[3,2-d]pyrimidin-6-amine], which EC50 is on record?
Answer: 84 nM

Question: `Nc1[nH]c2c(C3=CCCCC3)ncnc2c1S(=O)(=O)c1ccccc1F` [Example 38, 4-(cyclohex-1-en-t-yl)-7-[(2-fluorobenzene)sulfonyl]-5H-pyrrolo[3,2-d]pyrimidin-6-amine] was tested. Which EC50 did it give?
Answer: 16 nM

Question: `Nc1[nH]c2c(N3CCCC4(COC4)C3)ncnc2c1S(=O)(=O)c1ccccc1` [Example 150, 7-(benzenesulfonyl)-4-{2-oxa-6-azaspiro[3.5]nonan-6-yl}-5H-pyrrolo[3,2-d]pyrimidin-6-amine] was tested. Which EC50 did it give?
Answer: 933 nM

Question: Which EC50 does the source give for `C[C@@H]1CN(c2ncnc3c(S(=O)(=O)c4ccccc4)c(N)[nH]c23)C[C@H](C)O1` [Example 75, 7-(benzenesulfonyl)-4-[(2R,6S)-2,6-dimethylmorpholin-4-yl]-5H-pyrrolo[3,2-d]pyrimidin-6-amine] here?
Answer: 14 nM

Question: `Nc1[nH]c2c(OCC3CC(F)(F)C3)ncnc2c1S(=O)(=O)c1ccccc1` [Example 171, 7-(benzenesulfonyl)-4-[(3,3-difluorocyclobutyl)methoxy]-5H-pyrrolo[3,2-d]pyrimidin-6-amine] was tested. Which EC50 did it give?
Answer: 134 nM

Question: `Cc1nc(C2CCCCC2)c2[nH]c(N)c(S(=O)(=O)c3ccccc3)c2n1` [Example 40, 7-(benzenesulfonyl)-4-cyclohexyl-2-methyl-5H-pyrrolo[3,2-d]pyrimidin-6-amine] was tested. Which EC50 did it give?
Answer: 55 nM

Question: For `CC1CCCCN1c1ncnc2c(S(=O)(=O)c3ccccc3)c(N)[nH]c12` (stereo not shown) [Example 69, 7-(benzenesulfonyl)-4-(2-methylpiperidin-1-yl)-5H-pyrrolo[3,2-d]pyrimidin-6-amine], which EC50 is on record?
Answer: 49 nM

Question: Which EC50 does the source give for `Cc1nc(N2CCOC(C)(C(F)(F)F)C2)c2[nH]c(N)c(S(=O)(=O)c3ccccc3F)c2n1` (stereo not shown) [Example 303, 7-(2-fluorobenzenesulfonyl)-2-methyl-4-[2-methyl-2-(trifluoromethyl)morpholin-4-yl]-5H-pyrrolo[3,2-d]pyrimidin-6-amine] here?
Answer: 3 nM

Question: How did the EC50 turn out when `Nc1[nH]c2c(C3=CCCCC3)ncnc2c1S(=O)(=O)c1ccc(Cl)cc1` [Example 21, 7-[(4-chlorobenzene)sulfonyl]-4-(cyclohex-1-en-1-yl)-5H-pyrrolo[3,2-d]pyrimidin-6-amine] was run?
Answer: 54 nM

Question: For `Nc1[nH]c2c(C3=CCCC3)ncnc2c1S(=O)(=O)c1ccccc1` [Example 22, 7-(benzenesulfonyl)-4-(cyclopent-1-en-1-yl)-5H-pyrrolo[3,2-d]pyrimidin-6-amine], which EC50 is on record?
Answer: 73 nM

Question: Which EC50 does the source give for `Cc1nc(OC2CCOC2(C)C)c2[nH]c(N)c(S(=O)(=O)c3ccccc3)c2n1` (stereo not shown) [Example 258, 7-(benzenesulfonyl)-4-[(2,2-dimethyloxolan-3-yl)oxy]-2-methyl-5H-pyrrolo[3,2-d]pyrimidin-6-amine] here?
Answer: 209 nM

Question: `Cc1nc(N2C[C@H](C)OC[C@@H]2C)c2[nH]c(N)c(S(=O)(=O)c3ccccc3F)c2n1` [Example 223, 4-[(2S,5S)-2,5-dimethylmorpholin-4-yl]-7-(2-fluorobenzenesulfonyl)-2-methyl-5H-pyrrolo[3,2-d]pyrimidin-6-amine] was tested. Which EC50 did it give?
Answer: 7 nM

Question: How did the EC50 turn out when `Cc1nc(N(C)C(C)C)c2[nH]c(N)c(S(=O)(=O)c3cccc(F)c3)c2n1` [Example 193, 7-(3-fluorobenzenesulfonyl)-2,4-N-dimethyl-4-N-(propan-2-yl)-5H-pyrrolo[3,2-d]pyrimidine-4,6-diamine] was run?
Answer: 270 nM

Question: With `COc1ccc(S(=O)(=O)c2c(N)[nH]c3c(-c4ccccc4)ncnc23)cc1` [Example 76, 7-(4-methoxybenzenesulfonyl)-4-phenyl-5H-pyrrolo[3,2-d]pyrimidin-6-amine] as the compound, how does the EC50 read?
Answer: 135 nM

Question: How did the EC50 turn out when `Nc1[nH]c2cc(Cl)cnc2c1S(=O)(=O)c1ccccc1` [Example 10, 3-(benzenesulfonyl)-6-chloro-1H-pyrrolo[3,2-b]pyridin-2-amine] was run?
Answer: 626 nM

Question: For `Cc1ccc(S(=O)(=O)c2c(N)[nH]c3c(C4=CCCCC4)ncnc23)cc1` [Example 42, 4-(cyclohex-1-en-1-yl)-7-[(4-methylbenzene)sulfonyl]-5H-pyrrolo[3,2-d]pyrimidin-6-amine], which EC50 is on record?
Answer: 32 nM

Question: How did the EC50 turn out when `CN(c1ncnc2c(S(=O)(=O)c3ccccc3)c(N)[nH]c12)C1CC1` [Example 98, 7-(benzenesulfonyl)-4-N-cyclopropyl-4-N-methyl-5H-pyrrolo[3,2-d]pyrimidine-4,6-diamine] was run?
Answer: 648 nM

Question: With `Cc1nc(OC(C)C(F)(F)F)c2[nH]c(N)c(S(=O)(=O)c3ccccc3F)c2n1` (stereo not shown) [Example 274, 7-(2-fluorobenzenesulfonyl)-2-methyl-4-[(1,1,1-trifluoropropan-2-yl)oxy]-5H-pyrrolo[3,2-d]pyrimidin-6-amine] as the compound, how does the EC50 read?
Answer: 8 nM

Question: With `CCC(CC)Oc1nc(C)nc2c(S(=O)(=O)c3ccccc3)c(N)[nH]c12` [Example 248, 7-(benzenesulfonyl)-2-methyl-4-(pentan-3-yloxy)-5H-pyrrolo[3,2-d]pyrimidin-6-amine] as the compound, how does the EC50 read?
Answer: 22 nM
